Laboratory results taken from US20170204123A1, “Gold (I)-Phosphine Compounds as Anti-Bacterial Agents” (Auspherix Limited, priority 2014, published 2017).

The compounds below were run on chinese hamster ovary cells (CHO) (assay: CHO toxicity assay (CCK-8 cell viability)). Conditions: 50% growth inhibition vs untreated control, 24 hours.
Type: cell-based
Experimental: Cell counting kit-8 (Sigma, CCK-8) assays were performed to assess the effect of compounds on cell viability. The assay is based on the reduction of a water-soluble tetrazolium salt (WST-8) by cellular dehydrogenases to a formazan dye which can be detected spectroscopically. 96-well plates were seeded with chinese hamster ovary cells (CHO) cells at 7×10^3 cells per well in Dulbecco's modified Eagle's medium nutrient mixture F-12 Ham (containing 15 mM HEPES, NaHCO3, pyridoxine and L-glutamine) supplemented with 10% fetal bovine serum (FBS). The following day serial dilutions of compounds (dissolved and diluted in DMSO) were added to the cells in duplicates. Control included an ‘untreated’ control where cells were grown in the presence of 1% DMSO and a medium only control (plus 1% DMSO). After 24 hours CCK-8 reagent (10 μl) was added to each well and cell viability was assessed by measuring the absorbance at a wavelength of 450 nm after 2.5-3 hours. Only living cells can reduce the tetrazolium salts into coloured formazan products. Results were expressed as 50% growth inhibition (TD50) values compared to ‘untreated’ control.
The therapeutic index was calculated as the ratio of the dose that produces growth inhibition in 50% of CHO cells divided by the dose where 50% of S. aureus growth is inhibited.

First: CC[P](CC)(CC)=[Au][S]c1cccnn1 [Compound 4]
Second: CC[P](CC)(CC)=[Au][S]c1ncccn1 [Compound 3]
The “CHO cell TD 50” value of the first is 2.3-fold higher: 1.4 µg/mL for the first, 0.6 µg/mL for the second.

First: COC(=O)[C@H](C[S][Au]=[P](C)(c1ccccc1)c1ccccc1)NC(C)=O [Compound 10]
Second: C[P](=[Au][S]c1nc2ccccc2[nH]1)(c1ccccc1)c1ccccc1 [Compound 9]
The “CHO cell TD 50” value of the first is 2.2-fold lower: 1.2 µg/mL for the first, 2.6 µg/mL for the second.

CC[P](CC)(CC)=[Au][S]c1nc2ccccc2[nH]1 [Compound 5] and CC[P](CC)(CC)=[Au][S]c1nc2ncccc2o1 [Compound 8] are within 1.5-fold of each other in “CHO cell TD 50” value: 1.5 µg/mL for the first, 1.6 µg/mL for the second.

First: CC[P](CC)(CC)=[Au][Se]C[C@H](NC(C)=O)C(=O)OC [Compound 12]
Second: CC[P](CC)(CC)=[Au][S]C[C@H](NC(C)=O)C(=O)OC [Compound 7]
The “CHO cell TD 50” value of the first is 2.5-fold higher: 6.5 µg/mL for the first, 2.6 µg/mL for the second.

Compared with C[P](=[Au][S]c1nc2ncccc2o1)(c1ccccc1)c1ccccc1 [Compound 11], CC[P](CC)(CC)=[Au][S]C1CCOCC1 [Compound 1] is 4-fold lower in “CHO cell TD 50” value: 2.0 µg/mL for the first, 0.5 µg/mL for the second.

Compared with CC[P](CC)(CC)=[Au][S]C1CCN(C(=O)OC(C)(C)C)CC1 [Compound 2], CC[P](CC)(CC)=[Au][S][C@H]1CC[C@H](O)CC1 [Compound 6] is 2.1-fold higher in “CHO cell TD 50” value: 0.7 µg/mL for the first, 1.5 µg/mL for the second.

What follows are compounds tested on human hepatocyte cell line (HepG2) (assay: HepG2 cell inhibition assay (CCK-8 cell viability)). Conditions: 50% growth inhibition vs untreated control, 24 hours.
Type: cell-based
Experimental: HepG2 Cell Inhibition Assay
Cell counting kit-8 (Sigma, CCK-8) assays were performed to assess the effect of compounds on cell viability. The assay is based on the reduction of a water-soluble tetrazolium salt (WST-8) by cellular dehydrogenases to a formazan dye which can be detected spectroscopically. 96-well plates were seeded with the human hepatocyte cell line (HepG2) at approximately 8×10^3 cells per well in Minimum Essential Medium Eagle (EMEM) with Earle's salts and sodium bicarbonate supplemented with 10% heat-inactivated foetal bovine serum 2 mM glutamine and 1% non-essential amino acids (NEAA). The following day serial dilutions of compounds (dissolved and diluted in DMSO) were added to the cells in duplicates. Control included an ‘untreated’ control where cells were grown in the presence of 1% DMSO and a medium only control (plus 1% DMSO). After 24 hours CCK-8 reagent (10 μl) was added to each well and cell viability was assessed by measuring the absorbance at a wavelength of 450 nm after 2-3 h hours. Only living cells can reduce the tetrazolium salts into coloured formazan products. Results were expressed as 50% growth inhibition (TD50) values compared to ‘untreated’ control. The therapeutic index was calculated as the ratio of the dose that produces growth inhibition in 50% of HepG2 cells divided by the dose where 50% of S. aureus growth is inhibited.

First: CC[P](CC)(CC)=[Au][S]C[C@H](NC(C)=O)C(N)=O [Compound 16]
Second: COC(=O)[C@H](C[S][Au]=[P](C)(C)c1ccccc1)NC(C)=O [Compound 15]
The “HepG2 cell TD50” value of the first is 1.5-fold higher: 9 µg/mL for the first, 6 µg/mL for the second.

C[P](C)(=[Au][S]c1nc2ncccc2o1)c1ccccc1 [Compound 14] and C[P](C)(=[Au][S]c1nc2ccccc2[nH]1)c1ccccc1 [Compound 13] are within 1.5-fold of each other in “HepG2 cell TD50” value: 9 µg/mL for the first, 8.5 µg/mL for the second.

COC(=O)[C@H](C[Se][Au]=[P](C(C)C)(C(C)C)C(C)C)NC(C)=O [Compound 23] and COC(=O)[C@H](C[Se][Au]=[P](C)(c1ccccc1)c1ccccc1)NC(C)=O [Compound 22] are within 1.5-fold of each other in “HepG2 cell TD50” value: 12 µg/mL for the first, 10 µg/mL for the second.

In the case of CC(C)[P](=[Au][S]c1nc2ccccc2[nH]1)(C(C)C)C(C)C [Compound 20], the “HepG2 cell TD50” value is reported as 6 µg/mL.
